Test results reported in ChEMBL document CHEMBL5608235, “Tricyclic Benzo[1,3]oxazinyloxazolidinones as Potent Antibacterial Agents against Drug-Resistant Pathogens” (J Med Chem, 2024).
In brackets after ≈: the same amount, converted by molar mass.

Legend:
[1] = tested on: Mycobacterium tuberculosis; experiment: Antibacterial activity against Mycobacterium tuberculosis H37Rv assessed as inhibition of bacterial growth incubated for 7 days by alamar blue assay; type: functional; conditions: 168 h, time 7 day
Staphylococcus aureus [2] = experiment: Antibacterial activity against Staphylococcus aureus ATCC25923 assessed as inhibition of bacterial growth incubated for 18 hrs by microdilution broth assay; type: functional
Enterococcus faecalis [3] = experiment: Antibacterial activity against Enterococcus faecalis ATCC29212 assessed as inhibition of bacterial growth incubated for 18 hrs by microdilution broth assay; type: functional
Bacillus subtilis = experiment: Antibacterial activity against Bacillus subtilis ATCC6633 assessed as inhibition of bacterial growth incubated for 18 hrs by microdilution broth assay; type: functional
[4] = tested on: Staphylococcus epidermidis; experiment: Antibacterial activity against Staphylococcus epidermidis ATCC12228 assessed as inhibition of bacterial growth incubated for 18 hrs by microdilution broth assay; type: functional
[5] = Cytotoxicity against African green monkey Vero cells incubated for 48 hrs by MTT assay; type: toxicity, cell-based, Chlorocebus sabaeus
Staphylococcus aureus [6] = experiment: Antibacterial activity against methicillin resistant Staphylococcus aureus clinical isolate 20-1 assessed as inhibition of bacterial growth incubated for 7 days by alamar blue assay; type: functional; conditions: clinical isolate 20-1, 168 h, time 7 day
Staphylococcus aureus [7] = experiment: Antibacterial activity against methicillin resistant Staphylococcus aureus clinical isolate 20-2 assessed as inhibition of bacterial growth incubated for 7 days by alamar blue assay; type: functional; conditions: clinical isolate 20-2, 168 h, time 7 day
[8] = tested on: Staphylococcus epidermidis; experiment: Antibacterial activity against methicillin resistant Staphylococcus epidermidis clinical isolate 20-1 assessed as inhibition of bacterial growth incubated for 7 days by alamar blue assay; type: functional; conditions: clinical isolate 20-1, 168 h, time 7 day
[9] = tested on: Staphylococcus epidermidis; experiment: Antibacterial activity against methicillin resistant Staphylococcus epidermidis clinical isolate 20-2 assessed as inhibition of bacterial growth incubated for 7 days by alamar blue assay; type: functional; conditions: clinical isolate 20-2, 168 h, time 7 day
Staphylococcus aureus [10] = experiment: Antibacterial activity against vancomycin intermediate Staphylococcus aureus ATCC700699 assessed as inhibition of bacterial growth incubated for 7 days by alamar blue assay; type: functional; conditions: ATCC700699, 168 h, time 7 day
Enterococcus = experiment: Antibacterial activity against vancomycin resistant Enterococcus clinical isolate 20-1 assessed as inhibition of bacterial growth incubated for 7 days by alamar blue assay; type: functional; conditions: clinical isolate 20-1, 168 h, time 7 day
Staphylococcus aureus [11] = experiment: Antibacterial activity against Linezolid resistant Staphylococcus aureus clinical isolate 20-1 assessed as inhibition of bacterial growth incubated for 7 days by alamar blue assay; type: functional; conditions: clinical isolate 20-1, 168 h, time 7 day
Staphylococcus aureus [12] = experiment: Antibacterial activity against Linezolid resistant Staphylococcus aureus clinical isolate 20-2 assessed as inhibition of bacterial growth incubated for 7 days by alamar blue assay; type: functional; conditions: clinical isolate 20-2, 168 h, time 7 day
Enterococcus faecalis [13] = experiment: Antibacterial activity against Linezolid resistant Enterococcus faecalis clinical isolate 20-1 assessed as inhibition of bacterial growth incubated for 7 days by alamar blue assay; type: functional; conditions: clinical isolate 20-1, 168 h, time 7 day
Enterococcus faecalis [14] = experiment: Antibacterial activity against Linezolid resistant Enterococcus faecalis clinical isolate 20-2 assessed as inhibition of bacterial growth incubated for 7 days by alamar blue assay; type: functional; conditions: clinical isolate 20-2, 168 h, time 7 day
[15] = Oral bioavailability in BALB/c mouse at 10 mg/kg administration measured upto 24 hrs by LC-MS/MS analysis; type: ADME, organism-based; conditions: BALB/c, in vivo
[16] = Metabolic stability in ICR mouse liver microsomes assessed as compound remaining at 10 uM incubated for 60 mins in absence of NADPH by LC-MS/MS analysis; type: ADME, Microsome; conditions: read-out: Stability
[17] = Metabolic stability in human liver microsomes assessed as compound remaining at 10 uM incubated for 60 mins in absence of NADPH by LC-MS/MS analysis; type: ADME, Microsome; conditions: read-out: Stability
[18] = Metabolic stability in ICR mouse liver microsomes assessed as substrate remaining at 10 uM incubated for 60 mins in presence of NADPH by LC-MS/MS analysis; type: ADME, Microsome; conditions: read-out: Stability
[19] = Metabolic stability in human liver microsomes assessed as substrate remaining at 10 uM incubated for 60 mins in presence of NADPH by LC-MS/MS analysis; type: ADME, Microsome; conditions: read-out: Stability

CC(=O)NC[C@@H]1OC(=O)N2Cc3cc(-c4ccnc(C#N)c4)c(F)cc3O[C@@H]12
MIC [1]: 1.85 µg/mL (≈ 4.84 µM)
MIC (Staphylococcus aureus [2]): 4 µg/mL (≈ 10.5 µM)
MIC (Enterococcus faecalis [3]): 1 µg/mL (≈ 2.62 µM)
MIC (Bacillus subtilis): 0.25 µg/mL (≈ 0.654 µM)
MIC [4]: 1 µg/mL (≈ 2.62 µM)
IC50 at 48 h [5]: > 64 µg/mL

CC(=O)NC[C@@H]1OC(=O)N2Cc3cc(-c4ccc5c(c4)NC(=O)CO5)c(F)cc3O[C@@H]12
MIC [1]: 0.9 µg/mL (≈ 2.11 µM)
MIC (Staphylococcus aureus [2]): 32 µg/mL (≈ 74.9 µM)
MIC (Enterococcus faecalis [3]): 1 µg/mL (≈ 2.34 µM)
MIC (Bacillus subtilis): 16 µg/mL (≈ 37.4 µM)
MIC [4]: 2 µg/mL (≈ 4.68 µM)
IC50 at 48 h [5]: 40 µg/mL (≈ 93.6 µM)

COc1ccc(-c2c(F)cc3c(c2F)CN2C(=O)O[C@@H](CNC(C)=O)[C@@H]2O3)cn1
MIC [1]: 6.75 µg/mL (≈ 16.7 µM)
MIC (Staphylococcus aureus [2]): 8 µg/mL (≈ 19.7 µM)
MIC (Enterococcus faecalis [3]): 0.5 µg/mL (≈ 1.23 µM)
MIC (Bacillus subtilis): 0.032 µg/mL (≈ 0.0789 µM)
MIC [4]: 0.5 µg/mL (≈ 1.23 µM)

COc1cc(-c2cc3c(cc2F)O[C@H]2[C@H](CNC(C)=O)OC(=O)N2C3)ccn1
MIC [1]: 6.51 µg/mL (≈ 16.8 µM)
MIC (Staphylococcus aureus [2]): 4 µg/mL (≈ 10.3 µM)
MIC (Enterococcus faecalis [3]): 1 µg/mL (≈ 2.58 µM)
MIC (Bacillus subtilis): 0.5 µg/mL (≈ 1.29 µM)
MIC [4]: 2 µg/mL (≈ 5.16 µM)
IC50 at 48 h [5]: 36 µg/mL (≈ 92.9 µM)

CC(=O)NC[C@@H]1OC(=O)N2Cc3c(cc(F)c(-c4ccc(C#N)nc4)c3F)O[C@@H]12
MIC [1]: 0.97 µg/mL (≈ 2.42 µM)
MIC (Staphylococcus aureus [2]): 1 µg/mL (≈ 2.5 µM)
MIC (Enterococcus faecalis [3]): 0.5 µg/mL (≈ 1.25 µM)
MIC (Bacillus subtilis): 0.032 µg/mL (≈ 0.0799 µM)
MIC [4]: 0.125 µg/mL (≈ 0.312 µM)
IC50 at 48 h [5]: > 64 µg/mL
MIC (Staphylococcus aureus [6]): 1 µg/mL (≈ 2.5 µM)
MIC (Staphylococcus aureus [7]): 1 µg/mL (≈ 2.5 µM)
MIC [8]: 0.5 µg/mL (≈ 1.25 µM)
MIC [9]: 0.5 µg/mL (≈ 1.25 µM)
MIC (Staphylococcus aureus [10]): 1 µg/mL (≈ 2.5 µM)
MIC (Enterococcus): 1 µg/mL (≈ 2.5 µM)
MIC (Staphylococcus aureus [11]): 8 µg/mL (≈ 20 µM)
MIC (Staphylococcus aureus [12]): 8 µg/mL (≈ 20 µM)
MIC (Enterococcus faecalis [13]): 2 µg/mL (≈ 5 µM)
MIC (Enterococcus faecalis [14]): 2 µg/mL (≈ 5 µM)

CC(=O)NC[C@H]1OC(=O)N2Cc3cc(-c4ccc(C#N)nc4)c(F)cc3O[C@@H]12
MIC [1]: 0.48 µg/mL (≈ 1.26 µM)
MIC (Staphylococcus aureus [2]): 0.125 µg/mL (≈ 0.327 µM)
MIC (Enterococcus faecalis [3]): 0.5 µg/mL (≈ 1.31 µM)
MIC (Bacillus subtilis): 0.125 µg/mL (≈ 0.327 µM)
IC50 at 48 h [5]: > 64 µg/mL

CC(=O)NC[C@@H]1OC(=O)N2Cc3cc(-c4ccc(C(C)=O)cc4)c(F)cc3O[C@@H]12
MIC [1]: 0.74 µg/mL (≈ 1.86 µM)
MIC (Staphylococcus aureus [2]): 8 µg/mL (≈ 20.1 µM)
MIC (Enterococcus faecalis [3]): 1 µg/mL (≈ 2.51 µM)
MIC (Bacillus subtilis): 0.5 µg/mL (≈ 1.26 µM)
MIC [4]: 2 µg/mL (≈ 5.02 µM)
IC50 at 48 h [5]: 49 µg/mL (≈ 123 µM)

CC(=O)NC[C@@H]1OC(=O)N2Cc3cc(-c4ccn5ncnc5c4)c(F)cc3O[C@@H]12
MIC [1]: 1.43 µg/mL (≈ 3.6 µM)
MIC (Staphylococcus aureus [2]): 8 µg/mL (≈ 20.1 µM)
MIC (Enterococcus faecalis [3]): 0.5 µg/mL (≈ 1.26 µM)
MIC (Bacillus subtilis): 0.5 µg/mL (≈ 1.26 µM)
MIC [4]: 2 µg/mL (≈ 5.03 µM)
IC50 at 48 h [5]: > 64 µg/mL

COc1ccc(-c2c(F)cc3c(c2F)CN2C(=O)O[C@@H](CN)[C@@H]2O3)cn1
MIC [1]: 1.82 µg/mL (≈ 5.01 µM)
MIC (Staphylococcus aureus [2]): 64 µg/mL (≈ 176 µM)
MIC (Enterococcus faecalis [3]): > 64 µg/mL
MIC (Bacillus subtilis): 64 µg/mL (≈ 176 µM)
MIC [4]: 64 µg/mL (≈ 176 µM)

CC(=O)Nc1ccc(O)cc1 [ACETAMINOPHEN]
bioavailability [15]: 27.6%

CC(=O)NC[C@@H]1OC(=O)N2Cc3c(cc(F)c(-c4ccc(-c5nnn(C)n5)nc4)c3F)O[C@@H]12
MIC [1]: 0.74 µg/mL (≈ 1.62 µM)
MIC (Staphylococcus aureus [2]): 1 µg/mL (≈ 2.19 µM)
MIC (Enterococcus faecalis [3]): 2 µg/mL (≈ 4.37 µM)
MIC (Bacillus subtilis): 0.125 µg/mL (≈ 0.273 µM)
MIC [4]: 2 µg/mL (≈ 4.37 µM)
IC50 at 48 h [5]: > 64 µg/mL
MIC (Staphylococcus aureus [6]): 1 µg/mL (≈ 2.19 µM)
MIC (Staphylococcus aureus [7]): 1 µg/mL (≈ 2.19 µM)
MIC [8]: 0.5 µg/mL (≈ 1.09 µM)
MIC [9]: 0.5 µg/mL (≈ 1.09 µM)
MIC (Staphylococcus aureus [10]): 1 µg/mL (≈ 2.19 µM)
MIC (Enterococcus): 1 µg/mL (≈ 2.19 µM)
MIC (Staphylococcus aureus [11]): 8 µg/mL (≈ 17.5 µM)
MIC (Staphylococcus aureus [12]): 8 µg/mL (≈ 17.5 µM)
MIC (Enterococcus faecalis [13]): 2 µg/mL (≈ 4.37 µM)
MIC (Enterococcus faecalis [14]): 2 µg/mL (≈ 4.37 µM)

COC(=O)NC[C@@H]1OC(=O)N2Cc3cc(-c4ccc(-c5nnn(C)n5)nc4)c(F)cc3O[C@@H]12
MIC [1]: 0.49 µg/mL (≈ 1.08 µM)
MIC (Staphylococcus aureus [2]): 4 µg/mL (≈ 8.78 µM)
MIC (Enterococcus faecalis [3]): 0.5 µg/mL (≈ 1.1 µM)
MIC (Bacillus subtilis): 0.125 µg/mL (≈ 0.274 µM)
MIC [4]: 0.125 µg/mL (≈ 0.274 µM)
IC50 at 48 h [5]: 37 µg/mL (≈ 81.2 µM)
MIC (Staphylococcus aureus [6]): 0.25 µg/mL (≈ 0.549 µM)
MIC (Staphylococcus aureus [7]): 0.25 µg/mL (≈ 0.549 µM)
MIC [8]: 0.125 µg/mL (≈ 0.274 µM)
MIC [9]: 0.125 µg/mL (≈ 0.274 µM)
MIC (Staphylococcus aureus [10]): 0.5 µg/mL (≈ 1.1 µM)
MIC (Enterococcus): 0.5 µg/mL (≈ 1.1 µM)
MIC (Staphylococcus aureus [11]): 8 µg/mL (≈ 17.6 µM)
MIC (Staphylococcus aureus [12]): 8 µg/mL (≈ 17.6 µM)
MIC (Enterococcus faecalis [13]): 1 µg/mL (≈ 2.2 µM)
MIC (Enterococcus faecalis [14]): 1 µg/mL (≈ 2.2 µM)
remaining at 1 h, 10 µM [16]: 104%
remaining at 1 h, 10 µM [17]: 120%
remaining at 1 h, 10 µM [18]: 102%
remaining at 1 h, 10 µM [19]: 110%

CC(=O)NC[C@@H]1OC(=O)N2Cc3cc(-c4ccc(C(F)(F)F)nc4)c(F)cc3O[C@@H]12
MIC [1]: 6.7 µg/mL (≈ 15.8 µM)
MIC (Staphylococcus aureus [2]): 32 µg/mL (≈ 75.2 µM)
MIC (Enterococcus faecalis [3]): 1 µg/mL (≈ 2.35 µM)
MIC (Bacillus subtilis): 1 µg/mL (≈ 2.35 µM)
MIC [4]: 0.5 µg/mL (≈ 1.18 µM)
